Here are results for 19 molecules from patent publication US10738062B2, “Chromane-substituted tetracyclic compounds and uses thereof for the treatment of viral diseases” (Merck Sharp & Dohme Corp., priority 2016, dated 2020).

What is called EC50 is the concentration at which the effect is half-maximal.

Common to all, as to design: species or system Hepatitis C virus
One experiment relates to HCV replicon 1A. The experiment in a line: Cell-based HCV replicon assay (Replicon Assay A), replicon 1A. Conditions: replicon RNA by real time PCR, day 3. The procedure, abridged: (§1)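 Replicon cells were seeded at 2000/well with compound, 10 serial dilutions starting at 333.3 nM to 1.667 nM, in 0.5% DMSO and 5% FBS, then harvested on day 3. Replicon RNA was measured by multiplex TaqMan RT-PCR with cyclophilin as endogenous control. EC50 is the concentration raising Ct by 1 over projected baseline.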
A general note: In antiviral work, replicon cells carry a viral genome segment that copies itself.

In a further experiment the test system is HCV replicon 1B. The experiment in a line: Cell-based HCV replicon assay (Replicon Assay B), replicon 1B. Particulars: replicon RNA by real-time PCR, 3 days. On the procedure:
In an alternate assay (“Replicon Assay B”), 1000 cells were seeded per well in a 384-well collagen coated black plate from Greiner bio-one (Cat #781946) in 5% FBS. Inhibitors of this invention were added at 24 h post-seeding, and the plates were incubated for 3 days. Cells were subsequently lysed with Qiagen lysis buffer (Cat #1062731) to extract the RNA. HCV replicon RNA level was measured by real-time PCR using the RNA-to-CT kit from Applied Biosystem (Cat #4392656) and genotype-specific primers and probes. The amplicon was located within NS5B. […] (SEQ. ID NO. 2); the probe sequence was FAM-labeled […] (SEQ. ID NO. 3).
The real-time RT-PCR reactions were run on ABI PRISM 7900HT or Viia7 Sequence Detection System using the following program: 48° C. for 30 minutes, 95° C. for 10 minutes, 40 cycles of 95° C. for 15 sec, 60° C. for 1 minutes.
EC50 data for replicons 1A, 1AY93H and 2B were obtained using Replicon Assay A and EC50 data for replicon 1B was obtained using Replicon Assay B.

For a further experiment, the system named is HCV replicon 2B. Kind of experiment: Cell-based HCV replicon assay (Replicon Assay A), replicon 2B. Particulars: replicon RNA by real time PCR, day 3. The procedure, abridged:
as §1

The test system of a further experiment is HCV replicon 1A Y93H. The experiment in a line: Cell-based HCV replicon assay (Replicon Assay A), replicon 1AY93H. Particulars: replicon RNA by real time PCR, day 3. The essentials:
as §1

Setting [1] is: read-out: EC50 replicon 2B, Replicon Assay A.
[2] abbreviates: read-out: EC50 replicon 1A Y93H, Replicon Assay A.

Read-outs that look alike come from different tables or passages of the source.

With `COC(=O)NC(C(=O)N1[C@@H]2C[C@@H]2C[C@H]1c1ncc(-c2ccc3c(c2)cc2n3C(c3ccc4c(c3)OCCC4)Oc3cc(-c4cnc([C@@H]5CCCN5C(=O)[C@@H](NC(=O)OC)C(C)C)[nH]4)cc(F)c3-2)[nH]1)C1C[C@@H](C)O[C@@H](C)C1` (single isomer, unassigned) [Compound 68], the EC50 stood at 1.8 pM in the experiment on HCV replicon 1A; 2.3 pM in the experiment with HCV replicon 1B (Hepatitis C virus, 72 h); 16 pM in the experiment on HCV replicon 2B (setting [1]); 5 pM in the experiment on HCV replicon 1A Y93H (setting [2]).
As to `COC(=O)NC(C(=O)N1CCC[C@H]1c1ncc(-c2ccc3c(c2)cc2n3C(c3ccc4c(c3)OCCC4)Oc3cc(-c4cnc([C@@H]5CCCN5C(=O)[C@@H](NC(=O)OC)C(C)C)[nH]4)cc(F)c3-2)[nH]1)C1CCO[C@H](C)C1` (single isomer, unassigned) [Compound 93], the EC50 worked out at 1.7 pM in the experiment with HCV replicon 1A (Hepatitis C virus, 72 h); 2.1 pM with HCV replicon 1B (Hepatitis C virus, 72 h); 112 pM with HCV replicon 2B (setting [1]); 671 pM with HCV replicon 1A Y93H (setting [2]).
As to `COC(=O)NC(C(=O)N1CCC[C@H]1c1ncc(-c2ccc3c(c2)cc2n3C(c3ccc4c(c3)OC(C)CC4)Oc3cc(-c4cnc([C@@H]5CCCN5C(=O)[C@@H](NC(=O)OC)C(C)C)[nH]4)cc(F)c3-2)[nH]1)C1CCOC(C)(C)C1` (single isomer, unassigned) [Compound 64], the EC50 in the experiment with HCV replicon 1A is 2.7 pM; in the experiment with HCV replicon 1B, 4 pM; in the experiment with HCV replicon 2B (setting [1]), 26 pM; in the experiment on HCV replicon 1A Y93H (setting [2]) it was 60 pM.
Turning to `COC(=O)N[C@H](C(=O)N1CCC[C@H]1c1ncc(-c2ccc3c(c2)OC(c2ccc4c(c2)OCCC4)n2c-3cc3cc(-c4cnc([C@@H]5C[C@H]6C[C@H]6N5C(=O)[C@@H](NC(=O)OC)C(C)C)[nH]4)ccc32)[nH]1)C(C)C` (single isomer, unassigned) [Compound 50], the EC50 in the experiment on HCV replicon 1A is 1.4 pM; in the experiment on HCV replicon 1B (Hepatitis C virus, 72 h), 1.4 pM; with HCV replicon 2B (setting [1]), 36 pM; in the experiment on HCV replicon 1A Y93H (setting [2]), 60 pM.
With `COC(=O)N[C@H](C(=O)N1CCC[C@H]1c1ncc(-c2cc(F)c3c(c2)OC(c2ccc4c(c2)OC(C)CC4)n2c-3cc3cc(-c4cnc([C@@H]5CCCN5C(=O)[C@@H](NC(=O)OC)C(C)C)[nH]4)ccc32)[nH]1)C(C)C` (single isomer, unassigned) [Compound 13], the EC50 is 2.3 pM in the experiment on HCV replicon 1A; 3.2 pM with HCV replicon 1B (Hepatitis C virus, 72 h); 144 pM in the experiment with HCV replicon 2B (setting [1]); 106 pM with HCV replicon 1A Y93H (setting [2]).
The like results for `COC(=O)NC(C(=O)N1CCC[C@H]1c1ncc(-c2ccc3c(c2)cc2n3C(c3ccc4c(c3)OC(C)CC4)Oc3cc(-c4cnc([C@@H]5CCCN5C(=O)[C@@H](NC(=O)OC)C(C)C)[nH]4)cc(F)c3-2)[nH]1)C1CCOC(C)(C)C1` (single isomer, unassigned) [Compound 63] were, in that order, 2.6 pM, 2 pM, 16 pM and 32 pM.
As for `COC(=O)N[C@H](C(=O)N1CCC[C@H]1c1ncc(-c2cc(F)c3c(c2)OC(c2ccc4c(c2)OCCC4C)n2c-3cc3cc(-c4cnc([C@@H]5CCCN5C(=O)[C@@H](NC(=O)OC)C(C)C)[nH]4)ccc32)[nH]1)C(C)C` (single isomer, unassigned) [Compound 10], the EC50 in the experiment with HCV replicon 1A amounted to 2.4 pM; in the experiment on HCV replicon 1B, 1.2 pM; in the experiment with HCV replicon 2B (setting [1]) it was 41 pM; with HCV replicon 1A Y93H (setting [2]), 39 pM.
As to `COC(=O)N[C@H](C(=O)N1CCC[C@H]1c1ncc(-c2cc(F)c3c(c2)OC(c2ccc4c(c2)OCCC4)n2c-3cc3cc(-c4cnc([C@@H]5CCCN5C(=O)[C@@H](NC(=O)OC)C5CCOCC5)[nH]4)ccc32)[nH]1)C(C)C` (single isomer, unassigned) [Compound 32], the EC50 in the experiment on HCV replicon 1A was 2.6 pM; with HCV replicon 1B it was 2.6 pM; in the experiment on HCV replicon 2B (setting [1]), 3 pM; in the experiment with HCV replicon 1A Y93H (setting [2]), 10 pM.
On to `COC(=O)N[C@H](C(=O)N1CCC[C@H]1c1ncc(-c2ccc3c(c2)OC(c2ccc4c(c2)CCCO4)n2c-3cc3cc(-c4cnc([C@@H]5C[C@H]6C[C@H]6N5C(=O)[C@@H](NC(=O)OC)C(C)C)[nH]4)ccc32)[nH]1)C(C)C` (single isomer, unassigned) [Compound 52], for which the EC50 in the experiment on HCV replicon 1A is 2.2 pM; in the experiment on HCV replicon 1B it was 3.1 pM; with HCV replicon 2B (setting [1]), 1670 pM; in the experiment with HCV replicon 1A Y93H (setting [2]), 454 pM.
The like results for `COC(=O)N[C@H](C(=O)N1CCC[C@H]1c1ncc(-c2cc(F)c3c(c2)OC(c2ccc4c(c2)OC(C)CC4)n2c-3cc3cc(-c4cnc([C@@H]5CCCN5C(=O)[C@@H](NC(=O)OC)C(C)C)[nH]4)ccc32)[nH]1)C(C)C` (single isomer, unassigned) [Compound 14] were, in that order, 1.8 pM, 2.6 pM, 163 pM and 119 pM.
For `COC(=O)NC(C(=O)N1CCC[C@H]1c1ncc(-c2ccc3c(c2)cc2n3C(c3ccc4c(c3)OCCC4)Oc3cc(-c4cnc([C@@H]5CCCN5C(=O)[C@@H](NC(=O)OC)C(C)C)[nH]4)cc(F)c3-2)[nH]1)C(C)(C)F` (single isomer, unassigned) [Compound 43], the 50% effective concentration (EC50) turned out to be 2.2 pM in the experiment with HCV replicon 1A (Hepatitis C virus, 72 h); 2.3 pM in the experiment with HCV replicon 1B (Hepatitis C virus, 72 h); 81 pM with HCV replicon 2B (setting [1]); 75 pM in the experiment with HCV replicon 1A Y93H (Hepatitis C virus, 72 h, read-out: EC50 replicon 1A Y93H, Replicon Assay A).
For the molecule `COC(=O)NC(C(=O)N1CCC[C@H]1c1ncc(-c2ccc3c(c2)cc2n3C(c3ccc4c(c3)OCCC4)Oc3cc(-c4cnc([C@@H]5CCCN5C(=O)[C@@H](NC(=O)OC)C(C)C)[nH]4)cc(F)c3-2)[nH]1)C1CCOC(C)(C)C1` (single isomer, unassigned) [Compound 79], the EC50 in the experiment with HCV replicon 1A (Hepatitis C virus, 72 h) was determined as 1.7 pM; in the experiment on HCV replicon 1B (Hepatitis C virus, 72 h), 2.7 pM; in the experiment with HCV replicon 2B (Hepatitis C virus, 72 h, read-out: EC50 replicon 2B, Replicon Assay A), 7 pM; with HCV replicon 1A Y93H (setting [2]) it was 6 pM.
`COC(=O)N[C@H](C(=O)N1CCC[C@H]1c1ncc(-c2ccc3c(c2)OC(c2ccc4c(c2)CCCO4)n2c-3cc3cc(-c4cnc([C@@H]5C[C@H]6C[C@H]6N5C(=O)[C@@H](NC(=O)OC)C(C)C)[nH]4)ccc32)[nH]1)C(C)C` (single isomer, unassigned) [Compound 51]: the EC50 was 1.9 pM in the experiment on HCV replicon 1A (Hepatitis C virus, 72 h); 2.5 pM with HCV replicon 1B (Hepatitis C virus, 72 h); 4770 pM in the experiment on HCV replicon 2B (setting [1]); 2130 pM in the experiment on HCV replicon 1A Y93H (setting [2]).
As for `COC(=O)NC(C(=O)N1CCC[C@H]1c1ncc(-c2ccc3c(c2)cc2n3C(c3ccc4c(c3)OCCC4)Oc3cc(-c4cnc([C@@H]5CCCN5C(=O)[C@@H](NC(=O)OC)C(C)C)[nH]4)cc(F)c3-2)[nH]1)C1C[C@@H](C)O[C@H](C)C1` (single isomer, unassigned) [Compound 78], the EC50 with HCV replicon 1A stood at 2.2 pM; with HCV replicon 1B (Hepatitis C virus, 72 h), 2.6 pM; with HCV replicon 2B (setting [1]), 4 pM; in the experiment with HCV replicon 1A Y93H (setting [2]), 9 pM.
On to `COC(=O)N[C@H](C(=O)N1CCC[C@H]1c1ncc(-c2cc(F)c3c(c2)OC(c2ccc4c(c2)OCCC4)n2c-3cc3cc(-c4cnc([C@@H]5CCCN5C(=O)[C@@H](NC(=O)OC)C5CCOCC5)[nH]4)ccc32)[nH]1)C(C)C` (single isomer, unassigned) [Compound 31], for which the EC50 is 1.5 pM in the experiment with HCV replicon 1A (Hepatitis C virus, 72 h); 2.2 pM with HCV replicon 1B (Hepatitis C virus, 72 h); 98 pM in the experiment on HCV replicon 2B (setting [1]); 322 pM in the experiment on HCV replicon 1A Y93H (setting [2]).
As to `COC(=O)NC(C(=O)N1CCC[C@H]1c1ncc(-c2cc(F)c3c(c2)OC(c2ccc4c(c2)OCCC4)n2c-3cc3cc(-c4cnc([C@@H]5CCCN5C(=O)[C@@H](NC(=O)OC)C5CCOCC5)[nH]4)ccc32)[nH]1)C(C)(C)F` (single isomer, unassigned) [Compound 89], the concentration for a half-maximal effect (EC50) in the experiment on HCV replicon 1A was found to be 2.1 pM; in the experiment on HCV replicon 1B it was 3.1 pM; in the experiment with HCV replicon 2B (setting [1]), 15 pM; in the experiment with HCV replicon 1A Y93H (setting [2]) it was 17 pM.
As for `COC(=O)N[C@H](C(=O)N1CCC[C@H]1c1ncc(-c2cc(F)c3c(c2)OC(c2ccc4c(c2)OC(C)(C)C4)n2c-3cc3cc(-c4cnc([C@@H]5CCCN5C(=O)[C@@H](NC(=O)OC)C(C)C)[nH]4)ccc32)[nH]1)C(C)C` (single isomer, unassigned) [Compound 28], the concentration for a half-maximal effect (EC50) in the experiment on HCV replicon 1A turned out to be 1.7 pM; in the experiment on HCV replicon 1B (Hepatitis C virus, 72 h), 2.1 pM; in the experiment on HCV replicon 2B (setting [1]), 105 pM; in the experiment on HCV replicon 1A Y93H (setting [2]), 32 pM.
With `COC(=O)NC(C(=O)N1CCC[C@H]1c1ncc(-c2ccc3c(c2)cc2n3C(c3ccc4c(c3)OCCC4)Oc3cc(-c4cnc([C@@H]5CCCN5C(=O)[C@@H](NC(=O)OC)C(C)C)[nH]4)cc(F)c3-2)[nH]1)C1CCOC(C)(C)C1` (single isomer, unassigned) [Compound 80], the EC50 with HCV replicon 1A is 2.6 pM; in the experiment on HCV replicon 1B it was 3.2 pM; in the experiment with HCV replicon 2B (setting [1]) it was 6 pM; with HCV replicon 1A Y93H (setting [2]), 24 pM.
The like results for `COC(=O)NC(C(=O)N1CCC[C@H]1c1ncc(-c2ccc3c(c2)cc2n3C(c3ccc4c(c3)OC(C)CC4)Oc3cc(-c4cnc([C@@H]5CCCN5C(=O)[C@@H](NC(=O)OC)C(C)C)[nH]4)cc(F)c3-2)[nH]1)C1C[C@@H](C)O[C@@H](C)C1` (single isomer, unassigned) [Compound 60] were, in that order, 3 pM, 3.1 pM, 25 pM and 20 pM.
